Paper PMC11167047 (Cell Death Discovery, 2024)

How the values were obtained:
Assay in all cases: kinome screen (33PanQinase)
Type in all cases: biochemical
MAPKAPK2 = target: T1, MAPKAPK2 (Homo sapiens, UniProt P49137)
T1 construct: purchased Reaction Biology Europe GmbH (formerly ProQinase)
Procedure: (§1) The Kinome Screening was performed by Reaction Biology Europe GmbH (http://reactionbiology.com; Freiburg i. Br., Germany).

TNK1 = target: T2, TNK1 (Homo sapiens, UniProt Q13470)
T2 construct: purchased Reaction Biology Europe GmbH (formerly ProQinase)
T2 sequence (Q13470 1-666): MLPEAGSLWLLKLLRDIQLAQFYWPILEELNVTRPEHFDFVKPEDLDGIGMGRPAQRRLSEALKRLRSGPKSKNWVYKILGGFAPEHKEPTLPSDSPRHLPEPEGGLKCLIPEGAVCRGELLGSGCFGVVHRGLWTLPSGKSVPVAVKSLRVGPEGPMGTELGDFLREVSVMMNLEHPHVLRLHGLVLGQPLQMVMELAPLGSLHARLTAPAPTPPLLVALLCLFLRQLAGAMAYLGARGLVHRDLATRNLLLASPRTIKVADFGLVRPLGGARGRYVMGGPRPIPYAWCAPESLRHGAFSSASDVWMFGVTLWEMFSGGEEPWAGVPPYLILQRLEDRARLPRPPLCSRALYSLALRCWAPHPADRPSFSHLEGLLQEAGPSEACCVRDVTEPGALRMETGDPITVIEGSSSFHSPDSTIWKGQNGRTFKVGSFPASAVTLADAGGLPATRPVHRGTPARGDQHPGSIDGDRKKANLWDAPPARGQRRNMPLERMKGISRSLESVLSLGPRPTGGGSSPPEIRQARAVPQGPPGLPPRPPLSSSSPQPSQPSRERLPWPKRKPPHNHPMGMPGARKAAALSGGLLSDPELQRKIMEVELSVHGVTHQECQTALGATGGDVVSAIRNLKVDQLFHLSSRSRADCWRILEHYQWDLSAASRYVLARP
Procedure: as §1

VRK1 = target: T3, VRK1 (Homo sapiens, UniProt Q99986)
T3 construct: purchased Reaction Biology Europe GmbH (formerly ProQinase)
T3 sequence (Q99986 1-396): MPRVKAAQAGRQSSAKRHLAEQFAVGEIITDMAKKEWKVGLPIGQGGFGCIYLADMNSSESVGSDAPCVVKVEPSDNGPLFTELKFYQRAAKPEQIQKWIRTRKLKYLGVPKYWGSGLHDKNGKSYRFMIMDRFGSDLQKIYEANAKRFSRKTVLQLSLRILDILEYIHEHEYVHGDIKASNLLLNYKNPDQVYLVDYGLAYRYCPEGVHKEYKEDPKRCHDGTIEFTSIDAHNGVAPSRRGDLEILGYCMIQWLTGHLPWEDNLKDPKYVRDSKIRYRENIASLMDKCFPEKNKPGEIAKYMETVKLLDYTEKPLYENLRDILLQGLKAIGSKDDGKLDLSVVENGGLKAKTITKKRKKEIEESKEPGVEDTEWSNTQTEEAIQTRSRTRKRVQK
Procedure: as §1

JNK2 = target: T4, JNK2 (Homo sapiens, UniProt P45984)
T4 construct: purchased Reaction Biology Europe GmbH (formerly ProQinase)
T4 sequence (P45984 whole entry): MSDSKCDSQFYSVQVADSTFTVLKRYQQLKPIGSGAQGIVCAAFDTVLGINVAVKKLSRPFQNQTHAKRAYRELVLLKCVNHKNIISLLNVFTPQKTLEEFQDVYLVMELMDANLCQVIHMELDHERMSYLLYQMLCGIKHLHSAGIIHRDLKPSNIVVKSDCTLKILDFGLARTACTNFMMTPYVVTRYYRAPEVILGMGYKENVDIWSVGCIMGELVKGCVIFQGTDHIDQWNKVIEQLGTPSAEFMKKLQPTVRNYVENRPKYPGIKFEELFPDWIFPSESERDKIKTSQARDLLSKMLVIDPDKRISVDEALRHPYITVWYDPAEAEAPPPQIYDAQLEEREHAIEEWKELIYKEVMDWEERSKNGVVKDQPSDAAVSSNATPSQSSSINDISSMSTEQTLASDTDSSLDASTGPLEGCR
Procedure: as §1

ERBB4 = target: T5, ERBB4 (Homo sapiens, UniProt Q15303)
T5 construct: purchased Reaction Biology Europe GmbH (formerly ProQinase)
T5 sequence (Q15303 26-1308): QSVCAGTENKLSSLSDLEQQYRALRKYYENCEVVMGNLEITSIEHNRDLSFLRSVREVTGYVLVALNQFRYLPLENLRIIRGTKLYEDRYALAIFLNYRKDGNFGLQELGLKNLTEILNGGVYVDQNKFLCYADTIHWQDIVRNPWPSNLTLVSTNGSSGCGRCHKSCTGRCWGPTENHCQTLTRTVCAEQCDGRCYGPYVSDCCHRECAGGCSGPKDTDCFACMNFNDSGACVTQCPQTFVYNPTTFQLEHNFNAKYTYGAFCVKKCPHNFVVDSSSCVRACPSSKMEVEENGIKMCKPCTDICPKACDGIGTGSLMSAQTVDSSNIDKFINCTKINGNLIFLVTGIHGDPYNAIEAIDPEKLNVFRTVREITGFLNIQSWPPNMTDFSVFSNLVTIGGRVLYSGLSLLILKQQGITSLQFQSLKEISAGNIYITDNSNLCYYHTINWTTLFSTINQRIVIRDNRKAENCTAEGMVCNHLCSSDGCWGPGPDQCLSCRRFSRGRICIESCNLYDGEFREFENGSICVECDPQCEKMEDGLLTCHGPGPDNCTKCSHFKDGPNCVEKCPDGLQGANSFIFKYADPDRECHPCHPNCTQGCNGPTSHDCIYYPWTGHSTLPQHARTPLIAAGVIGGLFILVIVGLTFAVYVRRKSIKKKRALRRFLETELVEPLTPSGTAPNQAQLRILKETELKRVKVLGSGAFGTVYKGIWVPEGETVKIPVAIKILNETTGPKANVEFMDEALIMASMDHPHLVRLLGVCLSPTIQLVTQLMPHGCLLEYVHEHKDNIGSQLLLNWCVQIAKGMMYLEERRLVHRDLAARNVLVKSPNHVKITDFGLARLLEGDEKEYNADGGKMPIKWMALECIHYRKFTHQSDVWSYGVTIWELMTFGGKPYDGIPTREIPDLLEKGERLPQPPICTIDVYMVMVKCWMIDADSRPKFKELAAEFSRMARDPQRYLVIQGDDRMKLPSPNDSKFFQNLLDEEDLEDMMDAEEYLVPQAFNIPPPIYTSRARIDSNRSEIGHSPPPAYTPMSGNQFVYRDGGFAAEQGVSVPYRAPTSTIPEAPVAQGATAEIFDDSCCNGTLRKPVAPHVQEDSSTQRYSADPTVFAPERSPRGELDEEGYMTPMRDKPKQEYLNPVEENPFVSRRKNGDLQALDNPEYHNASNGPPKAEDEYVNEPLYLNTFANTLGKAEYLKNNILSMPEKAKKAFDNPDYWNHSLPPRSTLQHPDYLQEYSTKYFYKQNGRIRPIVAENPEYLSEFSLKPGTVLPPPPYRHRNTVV
Procedure: as §1

TIE2 = target: T6, TIE2 (Homo sapiens, UniProt Q02763)
T6 construct: purchased Reaction Biology Europe GmbH (formerly ProQinase)
Procedure: as §1

GRK5 = target: T7, GRK5 (Homo sapiens, UniProt P34947)
T7 construct: purchased Reaction Biology Europe GmbH (formerly ProQinase)
Procedure: as §1

TXK = target: T8, TXK (Homo sapiens, UniProt P42681)
T8 construct: purchased Reaction Biology Europe GmbH (formerly ProQinase)
T8 sequence (P42681 1-527): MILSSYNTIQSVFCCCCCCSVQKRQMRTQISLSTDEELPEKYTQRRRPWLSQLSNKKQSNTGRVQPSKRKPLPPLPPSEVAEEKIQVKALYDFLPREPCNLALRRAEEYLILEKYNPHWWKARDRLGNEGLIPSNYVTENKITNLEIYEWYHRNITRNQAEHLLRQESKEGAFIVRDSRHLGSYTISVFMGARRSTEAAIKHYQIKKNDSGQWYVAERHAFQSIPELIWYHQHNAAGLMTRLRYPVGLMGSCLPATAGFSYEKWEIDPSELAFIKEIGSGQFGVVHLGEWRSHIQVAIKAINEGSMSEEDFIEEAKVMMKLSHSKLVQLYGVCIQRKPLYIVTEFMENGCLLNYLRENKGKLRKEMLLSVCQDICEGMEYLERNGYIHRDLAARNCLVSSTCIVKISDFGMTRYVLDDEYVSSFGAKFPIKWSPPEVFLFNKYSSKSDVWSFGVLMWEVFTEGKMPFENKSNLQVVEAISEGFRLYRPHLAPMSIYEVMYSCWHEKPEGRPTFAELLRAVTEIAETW
Procedure: as §1

FGFR2 = target: T9, FGFR2 (Homo sapiens, UniProt P21802)
T9 construct: purchased Reaction Biology Europe GmbH (formerly ProQinase)
Procedure: as §1

CLK2 = target: T10, CLK2 (Homo sapiens, UniProt P49760)
T10 construct: purchased Reaction Biology Europe GmbH (formerly ProQinase)
T10 sequence (P49760 whole entry): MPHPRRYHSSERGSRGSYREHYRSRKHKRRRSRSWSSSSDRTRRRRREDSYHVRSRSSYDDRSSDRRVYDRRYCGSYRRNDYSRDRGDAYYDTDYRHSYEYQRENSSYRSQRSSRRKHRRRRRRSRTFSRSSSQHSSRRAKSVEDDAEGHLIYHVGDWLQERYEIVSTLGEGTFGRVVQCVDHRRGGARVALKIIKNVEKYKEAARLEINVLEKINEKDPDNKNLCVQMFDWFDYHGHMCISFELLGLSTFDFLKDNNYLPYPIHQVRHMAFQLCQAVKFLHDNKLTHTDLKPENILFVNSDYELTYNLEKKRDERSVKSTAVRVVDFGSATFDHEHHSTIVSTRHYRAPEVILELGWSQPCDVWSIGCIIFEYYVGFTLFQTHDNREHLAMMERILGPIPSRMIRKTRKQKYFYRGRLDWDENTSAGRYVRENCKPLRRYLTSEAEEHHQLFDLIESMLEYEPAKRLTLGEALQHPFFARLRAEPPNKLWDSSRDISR
Procedure: as §1

FGR = target: T11, FGR (Homo sapiens, UniProt P09769)
T11 construct: purchased Reaction Biology Europe GmbH (formerly ProQinase)
T11 sequence (P09769 whole entry): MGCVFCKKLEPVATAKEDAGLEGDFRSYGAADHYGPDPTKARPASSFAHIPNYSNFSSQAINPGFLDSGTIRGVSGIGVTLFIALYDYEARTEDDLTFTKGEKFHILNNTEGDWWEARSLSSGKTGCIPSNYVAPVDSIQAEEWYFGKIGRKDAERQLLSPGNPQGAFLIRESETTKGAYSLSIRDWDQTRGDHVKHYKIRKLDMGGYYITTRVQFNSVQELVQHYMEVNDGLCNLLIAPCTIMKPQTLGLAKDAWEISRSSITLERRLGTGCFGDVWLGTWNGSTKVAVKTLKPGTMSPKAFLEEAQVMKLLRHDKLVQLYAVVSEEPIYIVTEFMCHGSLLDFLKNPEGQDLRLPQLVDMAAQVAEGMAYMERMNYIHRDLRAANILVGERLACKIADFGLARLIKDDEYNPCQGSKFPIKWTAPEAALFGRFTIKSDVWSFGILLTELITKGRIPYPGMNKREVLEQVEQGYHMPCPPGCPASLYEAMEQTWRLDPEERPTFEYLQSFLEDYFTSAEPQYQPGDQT
Procedure: as §1

CK1γ3 = target: T12, CK1γ3 (Homo sapiens, UniProt Q9Y6M4)
T12 construct: purchased Reaction Biology Europe GmbH (formerly ProQinase)
T12 sequence (Q9Y6M4 whole entry): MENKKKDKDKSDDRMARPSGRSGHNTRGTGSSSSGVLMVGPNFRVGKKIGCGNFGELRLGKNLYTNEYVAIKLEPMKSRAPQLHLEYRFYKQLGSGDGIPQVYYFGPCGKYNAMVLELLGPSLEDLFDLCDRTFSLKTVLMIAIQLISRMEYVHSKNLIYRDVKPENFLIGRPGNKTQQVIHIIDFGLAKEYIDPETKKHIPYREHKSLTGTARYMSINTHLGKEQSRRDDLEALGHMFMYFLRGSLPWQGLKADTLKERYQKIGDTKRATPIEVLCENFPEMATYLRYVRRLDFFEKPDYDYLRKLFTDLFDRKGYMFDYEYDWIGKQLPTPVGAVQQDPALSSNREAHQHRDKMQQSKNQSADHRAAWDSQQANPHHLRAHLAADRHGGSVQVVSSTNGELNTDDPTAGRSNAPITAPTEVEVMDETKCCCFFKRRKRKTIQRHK
Procedure: as §1

AMPKα1 = target: T13, AMPKα1 (Homo sapiens, UniProt Q13131)
T13 construct: purchased Reaction Biology Europe GmbH (formerly ProQinase)
Procedure: as §1

CK1ε = target: T14, CK1ε (Homo sapiens, UniProt P49674)
T14 construct: purchased Reaction Biology Europe GmbH (formerly ProQinase)
T14 sequence (P49674 whole entry): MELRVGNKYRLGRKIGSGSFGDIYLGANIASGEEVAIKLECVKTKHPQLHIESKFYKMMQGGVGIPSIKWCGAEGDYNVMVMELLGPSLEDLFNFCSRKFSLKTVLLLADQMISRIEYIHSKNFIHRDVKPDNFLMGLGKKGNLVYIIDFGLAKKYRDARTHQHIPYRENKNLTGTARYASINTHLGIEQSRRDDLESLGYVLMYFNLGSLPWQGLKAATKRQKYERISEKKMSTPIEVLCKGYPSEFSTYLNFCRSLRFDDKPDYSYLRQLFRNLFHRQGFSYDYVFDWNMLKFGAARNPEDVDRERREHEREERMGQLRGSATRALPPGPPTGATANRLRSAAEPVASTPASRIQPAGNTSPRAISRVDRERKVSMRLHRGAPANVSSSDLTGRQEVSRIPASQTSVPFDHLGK
Procedure: as §1

PAK3 = target: T15, PAK3 (Homo sapiens, UniProt O75914)
T15 construct: purchased Reaction Biology Europe GmbH (formerly ProQinase)
T15 sequence (O75914 whole entry): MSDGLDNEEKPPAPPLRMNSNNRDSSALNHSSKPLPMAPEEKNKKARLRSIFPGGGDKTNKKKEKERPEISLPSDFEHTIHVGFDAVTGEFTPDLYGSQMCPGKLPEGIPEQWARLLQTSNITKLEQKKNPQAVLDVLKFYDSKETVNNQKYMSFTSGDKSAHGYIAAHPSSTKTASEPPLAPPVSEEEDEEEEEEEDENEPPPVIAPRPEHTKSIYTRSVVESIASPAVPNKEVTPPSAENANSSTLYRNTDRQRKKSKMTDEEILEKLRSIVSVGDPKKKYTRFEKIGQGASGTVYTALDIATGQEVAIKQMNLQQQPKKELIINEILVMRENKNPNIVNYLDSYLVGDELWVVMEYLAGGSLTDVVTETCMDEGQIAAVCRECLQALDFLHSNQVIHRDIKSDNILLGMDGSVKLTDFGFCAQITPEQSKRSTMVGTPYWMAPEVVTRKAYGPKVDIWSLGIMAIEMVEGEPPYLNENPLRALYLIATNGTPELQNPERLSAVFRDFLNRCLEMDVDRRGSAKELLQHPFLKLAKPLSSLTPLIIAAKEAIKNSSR
Procedure: as §1

p38β = target: T16, p38β (Homo sapiens, UniProt Q15759)
T16 construct: purchased Reaction Biology Europe GmbH (formerly ProQinase)
T16 sequence (Q15759 whole entry): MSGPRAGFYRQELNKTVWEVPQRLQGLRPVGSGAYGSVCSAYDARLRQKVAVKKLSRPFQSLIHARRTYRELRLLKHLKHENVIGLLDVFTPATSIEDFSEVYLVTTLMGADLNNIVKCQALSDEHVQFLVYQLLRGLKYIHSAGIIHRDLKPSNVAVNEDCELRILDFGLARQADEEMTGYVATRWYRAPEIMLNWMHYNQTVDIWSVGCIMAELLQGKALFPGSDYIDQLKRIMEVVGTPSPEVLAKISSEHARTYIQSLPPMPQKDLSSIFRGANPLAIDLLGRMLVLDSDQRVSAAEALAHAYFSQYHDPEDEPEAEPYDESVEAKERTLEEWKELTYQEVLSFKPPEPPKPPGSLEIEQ
Procedure: as §1

T1 sequence (P49137 whole entry): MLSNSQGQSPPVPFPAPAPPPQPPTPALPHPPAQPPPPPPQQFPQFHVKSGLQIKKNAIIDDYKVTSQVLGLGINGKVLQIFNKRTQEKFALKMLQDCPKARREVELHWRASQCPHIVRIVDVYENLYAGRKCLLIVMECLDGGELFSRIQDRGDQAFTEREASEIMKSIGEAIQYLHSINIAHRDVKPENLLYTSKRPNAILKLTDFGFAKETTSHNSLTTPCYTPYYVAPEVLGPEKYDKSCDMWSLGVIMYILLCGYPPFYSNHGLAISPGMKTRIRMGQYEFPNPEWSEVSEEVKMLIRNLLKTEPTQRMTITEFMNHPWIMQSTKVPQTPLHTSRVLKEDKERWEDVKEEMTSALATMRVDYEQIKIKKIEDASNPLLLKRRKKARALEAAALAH

**Q.** How did the residual kinase activity (MAPKAPK2; 0.3 µM) turn out when `COc1ccnc2[nH]cc(-c3cc(N)nc(N)c3)c12` [meriolin 16] was run?
**A.** 95 % of control

**Q.** What about the residual kinase activity (TNK1; 0.03 µM) of the same compound?
**A.** 82 % of control

**Q.** And the residual kinase activity (TNK1; 0.3 µM)?
**A.** 39 % of control

**Q.** And the residual kinase activity (VRK1; 0.03 µM)?
**A.** 114 % of control

**Q.** What about the residual kinase activity (VRK1; 0.3 µM) of the same compound?
**A.** 108 % of control

**Q.** And the residual kinase activity (JNK2; 0.03 µM)?
**A.** 78 % of control

**Q.** What about the residual kinase activity (JNK2; 0.3 µM) of the same compound?
**A.** 85 % of control

**Q.** What about the residual kinase activity (ERBB4; 0.03 µM) of the same compound?
**A.** 108 % of control

**Q.** What about the residual kinase activity (ERBB4; 0.3 µM) of the same compound?
**A.** 90 % of control

**Q.** What about the residual kinase activity (TIE2; 0.03 µM) of the same compound?
**A.** 132 % of control

**Q.** And the residual kinase activity (TIE2; 0.3 µM)?
**A.** 105 % of control

**Q.** And the residual kinase activity (GRK5; 0.03 µM)?
**A.** 118 % of control

**Q.** And the residual kinase activity (GRK5; 0.3 µM)?
**A.** 91 % of control

**Q.** And the residual kinase activity (TXK; 0.03 µM)?
**A.** 100 % of control

**Q.** And the residual kinase activity (TXK; 0.3 µM)?
**A.** 90 % of control

**Q.** What about the residual kinase activity (FGFR2; 0.03 µM) of the same compound?
**A.** 94 % of control

**Q.** And the residual kinase activity (FGFR2; 0.3 µM)?
**A.** 85 % of control

**Q.** What about the residual kinase activity (CLK2; 0.03 µM) of the same compound?
**A.** 8 % of control

**Q.** What about the residual kinase activity (CLK2; 0.3 µM) of the same compound?
**A.** 1 % of control

**Q.** And the residual kinase activity (FGR; 0.03 µM)?
**A.** 111 % of control

**Q.** And the residual kinase activity (FGR; 0.3 µM)?
**A.** 105 % of control

**Q.** What about the residual kinase activity (CK1γ3; 0.03 µM) of the same compound?
**A.** 77 % of control

**Q.** And the residual kinase activity (CK1γ3; 0.3 µM)?
**A.** 22 % of control

**Q.** And the residual kinase activity (AMPKα1; 0.03 µM)?
**A.** 108 % of control

**Q.** What about the residual kinase activity (AMPKα1; 0.3 µM) of the same compound?
**A.** 78 % of control

**Q.** And the residual kinase activity (CK1ε; 0.03 µM)?
**A.** 112 % of control

**Q.** What about the residual kinase activity (CK1ε; 0.3 µM) of the same compound?
**A.** 41 % of control

**Q.** And the residual kinase activity (PAK3; 0.03 µM)?
**A.** 85 % of control

**Q.** And the residual kinase activity (PAK3; 0.3 µM)?
**A.** 84 % of control

**Q.** What about the residual kinase activity (p38β; 0.03 µM) of the same compound?
**A.** 79 % of control

**Q.** What about the residual kinase activity (p38β; 0.3 µM) of the same compound?
**A.** 88 % of control

**Q.** Which residual kinase activity (MAPKAPK2; 0.3 µM) does the source give for `c1ccc(CNc2cc(-c3c[nH]c4ncccc34)ccn2)cc1` [meriolin 36] here?
**A.** 130 % of control

**Q.** And the residual kinase activity (MAPKAPK2; 3 µM)?
**A.** 87 % of control

**Q.** What about the residual kinase activity (TNK1; 0.3 µM) of the same compound?
**A.** 29 % of control

**Q.** What about the residual kinase activity (TNK1; 3 µM) of the same compound?
**A.** 9 % of control

**Q.** What about the residual kinase activity (VRK1; 0.3 µM) of the same compound?
**A.** 104 % of control

**Q.** And the residual kinase activity (VRK1; 3 µM)?
**A.** 61 % of control

**Q.** What about the residual kinase activity (JNK2; 0.3 µM) of the same compound?
**A.** 63 % of control

**Q.** What about the residual kinase activity (JNK2; 3 µM) of the same compound?
**A.** 29 % of control

**Q.** What about the residual kinase activity (ERBB4; 0.3 µM) of the same compound?
**A.** 101 % of control

**Q.** And the residual kinase activity (ERBB4; 3 µM)?
**A.** 56 % of control

**Q.** What about the residual kinase activity (TIE2; 0.3 µM) of the same compound?
**A.** 113 % of control

**Q.** What about the residual kinase activity (TIE2; 3 µM) of the same compound?
**A.** 65 % of control

**Q.** What about the residual kinase activity (GRK5; 0.3 µM) of the same compound?
**A.** 119 % of control

**Q.** And the residual kinase activity (GRK5; 3 µM)?
**A.** 74 % of control

**Q.** And the residual kinase activity (TXK; 0.3 µM)?
**A.** 84 % of control

**Q.** What about the residual kinase activity (TXK; 3 µM) of the same compound?
**A.** 35 % of control

**Q.** What about the residual kinase activity (FGFR2; 0.3 µM) of the same compound?
**A.** 52 % of control

**Q.** What about the residual kinase activity (FGFR2; 3 µM) of the same compound?
**A.** 9 % of control

**Q.** What about the residual kinase activity (CLK2; 0.3 µM) of the same compound?
**A.** 1 % of control

**Q.** What about the residual kinase activity (CLK2; 3 µM) of the same compound?
**A.** 2 % of control

**Q.** And the residual kinase activity (FGR; 0.3 µM)?
**A.** 40 % of control

**Q.** What about the residual kinase activity (FGR; 3 µM) of the same compound?
**A.** 6 % of control

**Q.** What about the residual kinase activity (CK1γ3; 0.3 µM) of the same compound?
**A.** 49 % of control

**Q.** What about the residual kinase activity (CK1γ3; 3 µM) of the same compound?
**A.** 9 % of control

**Q.** What about the residual kinase activity (AMPKα1; 0.3 µM) of the same compound?
**A.** 57 % of control

**Q.** What about the residual kinase activity (AMPKα1; 3 µM) of the same compound?
**A.** 9 % of control

**Q.** And the residual kinase activity (CK1ε; 0.3 µM)?
**A.** 86 % of control

**Q.** What about the residual kinase activity (CK1ε; 3 µM) of the same compound?
**A.** 23 % of control

**Q.** And the residual kinase activity (PAK3; 0.3 µM)?
**A.** 85 % of control

**Q.** And the residual kinase activity (PAK3; 3 µM)?
**A.** 40 % of control

**Q.** What about the residual kinase activity (p38β; 0.3 µM) of the same compound?
**A.** 77 % of control

**Q.** What about the residual kinase activity (p38β; 3 µM) of the same compound?
**A.** 84 % of control
